The values below come from PMC8877822, “Interrogation of the Structure–Activity Relationship of a Lipophilic Nitroaromatic Prodrug Series Designed for Cancer Gene Therapy Applications” (Pharmaceuticals, 2022).

For orientation: MTD means the largest dose that counted as tolerated. By melting point is commonly meant the temperature, or range, at which the solid turns liquid. Broadly, the logD is lipophilicity at a set pH, counting ionised and neutral species. A low value points to lower lipophilicity.

Like-named read-outs stand apart in the source and are kept apart here.

The conditions of series [1]: non-tumour bearing, cited from earlier work.
In series [2] the test system is mixed H1299 xenograft containing 28% NfsA_Ec cells and 72% WT cells. The series can be described thus: Tumor growth delay assay, mixed H1299 xenograft. The format is in vivo, mice. The settings on record: for Survival time compared to PR-104 treated tumors: single i.p. dose: 1-P 1330 µmol/kg. The procedure:
These ratios were broadly similar to those observed in HCT116 cells (Figure 2). A mixed H1299 xenograft model containing a minority percentage (28 ± 3.3%) of NfsA_Ec-expressing cells was used in order to rank the efficacy of the prodrugs in vivo. A model such as this necessitates the presence of a robust bystander effect to achieve a tumor growth delay. Tumor-bearing mice were administered a single intraperitoneal dose of prodrugs 1-P, 2-P, and 6-P at the H1299 tumor-bearing MTD. PR-104 was administered at 388 µmol/kg, the human equivalent dose (HED) in mice that provides a plasma AUCfree of PR-104A (38 µM-h) that equates to the human Q3W MTD of 1100 mg/m^2 [22].
(§1) An estimated starting dose was determined from related compounds. Animals were promptly euthanized if body weight loss exceeded 20% or if there were clinical signs of severe morbidity. The MTD was defined as the highest dose, at which all animals survived (death rate < 1/6) with no unacceptable morbidity, and where the next dose increment had caused at least one death. Tumors were inoculated onto the flanks of NIH-III nude mice by subcutaneous injection of 10^7 H1299 cells. Tumor-bearing mice were randomized to treatment groups (n = 5 mice per group) when tumors reached treatment size (300–350 mm^3) and injected with a single intraperitoneal dose of pre-prodrug. Tumor size and body weights were measured regularly. Tumor volume was calculated as π(Lxw^2)/6, where L is the major axis and w is the perpendicular minor axis. Animals were euthanized when the tumor volume had increased fourfold relative to pre-treatment volume (RTV4, survival endpoint) or if body weight loss exceeded 20% of the pre-treatment value. Kaplan–Meier plots were constructed, and median time to endpoint was calculated. Treatment efficacy was assessed by comparing the median survival time with untreated animals using the Log-rank test p-test (Sigmaplot version 11.0).
Figure 5 In vivo efficacy of the three lead pre-prodrug compounds in a mixed H1299 xenograft containing 28% NfsA_Ec cells and 72% WT cells. (A) Tumor growth and (B) survival analysis of mice bearing 250 mm^3 H1299 tumors treated with a single intraperitoneal dose of prodrug on day 0. N = 5 animals per group. Control = PBS, PR-104 = 388 µmol/kg; 1-P = 1330 μmol/kg; 2-P = 750 μmol/kg; and 6-P = 1330 μmol/kg. Survival endpoint was 4× start volume (RTV4).

A short description of another series: in vivo. It is filed as in vivo, mice. The note with it: for MTD: NIH-III nude, mouse, in vivo, ip, i.p., read-out: Maximum tolerated dose (MTD).
Source text: NfsA_Ec potency and bystander effect from the diffusion of activated metabolites is only one determinant of the therapeutic utility of a GDEPT prodrug. Overall, anti-tumor activity will also depend on the efficiency of metabolic activation at well-tolerated prodrug doses, determined mainly by the relationship between host toxicity and plasma/tumor pharmacokinetics. Like PR-104A, the three lead prodrugs (1, 2, and 6) contain an alcohol side chain that requires addition of a phosphate ester to increase water solubility for in vivo applications. […] Employing identical methods, we determined the MTD of compounds 2-P and 6-P to be 1000 µmol/kg and 1330 µmol/kg, respectively (data summary in Table S1). In preparation for efficacy testing against H1299 xenografts, we next determined the MTD of each compound (1-P, 2-P, and 6-P) in H1299 tumor-bearing mice to be 1330 µmol/kg, 750 µmol/kg, and 1330 µmol/kg, respectively (Table S1). In each case 1-P, 2-P, and 6-P administration (i.p.) was well tolerated, with no evidence of morbidity or mortality, accompanied by a minimal body weight loss (BWL) nadir of −2.2%, −4.0%, and −5.3%, respectively (MTD defined as <−15% average BWL).
as §1
Supplementary Table S1. Summary of maximum tolerated dose of test compounds
Footnotes: BWL nadir % = body weight loss percentage (time independent nadir). HEP = humane endpoint. * =
Non-tumour bearing H1299 tumour bearing

For a further series, the system named is SiHa xenografts. The series can be described thus: Tumor excision assay, clonogenic cell kill of SiHa xenografts. The note with it: 18 h after treatment, PR-104 380 µmol/kg i.p., 6-P 1330 µmol/kg i.p. It is filed as in vivo, mice. As to the method: The sensitivity of four cancer cell lines to prodrug 6 was determined under aerobic or anoxic conditions using an anti-proliferative IC50 assay. […] We also evaluated the hypoxic activity of 6-P versus PR-104 in vivo using a SiHa xenograft model (Figure 6B).
When tumors reached treatment size (>400 mm^3), mice were treated with drug by a single intraperitoneal injection of pre-prodrug or vehicle. Mice treated with ionizing radiation were exposed to 10 Gray prior to drug treatment, using a cobalt-60 source from an Eldorado G unit. Animals were euthanized 18 h after drug treatment, and tumors were excised and homogenized using sterile scissors until a fine mince was obtained. Following enzymatic dissociation (2.5 mg/mL pronase, 1 mg/mL collagenase, and 0.2 mg/mL DNAase in αMEM + 10% FBS + 1% P/S, 1 mL per 50 mg), cells were plated at concentrations of 10^2–10^5 cells per 60 mm dish and grown for 10 days before colonies were stained with methylene blue (2 g/L in 50% aqueous alcohol). Colonies containing >50 cells were counted as clonogenic survivors. From these values, plating efficiency (colonies/cells plated), number of clonogens per gram of tumor tissue (plating efficiency × total cells), and log cell kill relative to vehicle treated controls (log clonogens per gram) were calculated. Statistical analysis was undertaken using Holm–Sidak’s one-way ANOVA (Sigmaplot version 11.0).
(A) In vitro anti-proliferative activity of 6 in various cancer cell lines under aerobic and anoxic conditions. IC50 values were determined as the concentration of drug required to inhibit cell growth by 50% of untreated controls following 4 h drug exposure and five days regrowth (mean ±SEM of three or more independent determinations). (B) Clonogenic cell kill of SiHa xenografts 18 h after treatment with hypoxia activated prodrugs PR-104 (380 µmol/kg, i.p.) or 6-P (1330 µmol/kg, i.p.) with or without 10 Gy radiation.

The nature of series [3]: LogD7.4 by low-volume octanol/PBS shake-flask method. It is filed as physicochemical. The settings on record: n-octanol/PBS; octanol-water partition coefficient, shake-flask method at pH 7.4. As to the method:
Distribution ratios (LogD7.4) were determined by a low-volume octanol/PBS shake-flask method. Briefly, saturated solutions of octanol and PBS were prepared by mixing equal volumes of n-octanol and PBS (pH 7.4) before being left for three days. The octanol and PBS phases were then carefully separated and left to stand for at least 24 h. Stock solutions (0.1–0.5 mM) of each compound were prepared in octanol saturated with PBS. The stock solutions were diluted with octanol saturated with PBS containing and inter-assay control (acridone) to a final compound concentration of 50 μM. Aliquots (450 μL) were then taken in triplicate, and 450 μL of PBS saturated with octanol was added into amber tubes. The tubes were then sealed in parafilm and rotated for 90 min at 30 rpm to equilibrate. After centrifugation (15,000× g, 5 min, 20°C) the octanol and PBS phases were separated into different tubes and the octanol phase diluted with methanol (1:5 v/v). Both phases were analyzed by HPLC (diode-array detector at 364 ± 10 nm) by injecting 50 μL of the PBS phase and 15 μL of the diluted octanol phase. The results were then expressed as the log ratio of the peak areas obtained from the octanol and PBS phases corrected for dilution and injection volume.

The mark [4] stands for this setting: H1299 tumour bearing, dose 1330 µmol/kg.
[5] abbreviates: H1299 tumour bearing, dose 1780 µmol/kg.
[6] abbreviates: non-tumour bearing, dose 1330 µmol/kg.
[7] abbreviates: non-tumour bearing, dose 1780 µmol/kg.
Setting [8] is: H1299 tumour bearing, dose 750 µmol/kg.
Where [9] appears, read: H1299 tumour bearing, dose 1000 µmol/kg.
[10] abbreviates: non-tumour bearing, dose 1000 µmol/kg.

Take `CS(=O)(=O)c1cc([N+](=O)[O-])c(C(=O)NCCOP(=O)(O)O)cc1N(CCBr)CCBr` [Compound 1-P]: in series [1] (dose 1780 µmol/kg), the BWL nadir is -2.8%, the Deaths was 0, the “HEP (humane endpoint)” value is given as 0 and the “MTD (Yes/above)” value is “Yes”. Besides, in series [1] (dose 2370 µmol/kg), the BWL nadir is -6.9%, the Deaths is reported as 2, the “HEP (humane endpoint)” value is listed as 0 and the “MTD (Yes/above)” value is on record as “above”. The “Maximum tolerated dose (MTD)” value in series [1] (nude mice, i.p.) is 1780 µmol/kg. In series [2] (2-P 750 µmol/kg), the “Survival time compared to PR-104 treated tumors” value was “did not produce an improvement in survival time”. In “in vivo” (setting [4]), the BWL nadir is reported as -2.2%, the Deaths was found to be 0, the “HEP (humane endpoint)” value is reported as 0 and the “MTD (Yes/above)” value was “Yes”. In addition, in “in vivo” (setting [5]), the BWL nadir is reported as -7.6%, the Deaths worked out at 1, the “HEP (humane endpoint)” value was 1 and the “MTD (Yes/above)” value was “above”. Also, the MTD in “in vivo” (H1299 tumor-bearing mice) was 1330 µmol/kg.
Consider `CCCS(=O)(=O)c1cc([N+](=O)[O-])c(C(=O)NCCO)cc1N(CCBr)CCBr` [Compound 8], for which the melting point lay within 128 to 129 °C.
Turning to `CCS(=O)(=O)c1cc([N+](=O)[O-])c(C(=O)N(C)CCOP(=O)(O)O)cc1N(CCBr)CCBr` [Compound 6-P, 2-(5-(bis(2-bromoethyl)amino)-4-(ethylsulfonyl)-N-methyl-2-nitrobenzamido)ethyl dihydrogen phosphate], the “Tumor growth delay compared to PR-104 treated group” value in series [2] (single i.p. dose, 6-P 1330 µmol/kg, PR-104 388 µmol/kg) was 92%. In series [2] (single i.p. dose: PR-104 388 µmol/kg, 1-P 1330 µmol/kg, 2-P 750 µmol/kg, 6-P 1330 µmol/kg), the “Tumor growth delay (median time to RTV4) compared to untreated controls” value is recorded as 156%. In the series “in vivo” (setting [4]), the BWL nadir was -5.3%, the Deaths is 0, the “HEP (humane endpoint)” value was 0 and the “MTD (Yes/above)” value is listed as “Yes”. Further, in the series “in vivo” (H1299 tumor-bearing mice), the MTD was found to be 1330 µmol/kg. In addition, the MTD in “in vivo” (nude mice, non-tumour bearing) stood at 1330 µmol/kg. Also, in “in vivo” (setting [6]), the BWL nadir was -1.8%, the Deaths is given as 0, the “HEP (humane endpoint)” value is 0 and the “MTD (Yes/above)” value is given as “Yes”. In “in vivo” (setting [7]), the Deaths turned out to be 0, the “HEP (humane endpoint)” value worked out at 2 and the “MTD (Yes/above)” value was “above”. Also, in the series on SiHa xenografts (10 Gy radiation), the “Log cell kill, in combination with radiotherapy” value is 4.05. Further, the “Log cell kill, single agent” value with SiHa xenografts was 1.06.
Consider `CCN(CCO)C(=O)c1cc(N(CCBr)CCBr)c(S(C)(=O)=O)cc1[N+](=O)[O-]` [Compound 3], for which, in series [3], the logD at 90 min was 1.6.
`CCS(=O)(=O)c1cc([N+](=O)[O-])c(C(=O)NCCO)cc1N(CCBr)CCBr` [Compound 5, 5-(Bis(2-bromoethyl)amino)-N-(2-hydroxyethyl)-4-(ethylsulfonyl)-2-nitrobenzamide]: the melting point was 137 to 140 °C. The compound further registered a logD at 90 min in series [3] of 1.5.
Turning to `CN(CCOP(=O)(O)O)C(=O)c1cc(N(CCBr)CCBr)c(S(C)(=O)=O)cc1[N+](=O)[O-]` [Compound 2-P, 2-(5-(Bis(2-bromoethyl)amino)-N-methyl-4-(methylsulfonyl)-2-nitrobenzamido)ethyl dihydrogen phosphate], the “Survival time compared to PR-104 treated tumors” value in series [2] (2-P 750 µmol/kg) was “did not produce an improvement in survival time”. Besides, the BWL nadir in the series “in vivo” (setting [8]) is on record as -4.0%; in “in vivo” (setting [9]) it was -8.7%; in “in vivo” (setting [10]) it was -2.5%; in “in vivo” (setting [6]), -10.5%. The Deaths in the series “in vivo” (setting [8]) is reported as 0; in “in vivo” (setting [9]), 2; in the series “in vivo” (setting [10]), 0; in “in vivo” (setting [6]), 1. In addition, the “HEP (humane endpoint)” value is given as 0 in the series “in vivo” (setting [8]), 0 in the series “in vivo” (setting [9]), 0 in “in vivo” (setting [10]) and 1 in “in vivo” (setting [6]). The “MTD (Yes/above)” value in “in vivo” (setting [8]) is reported as “Yes”; in the series “in vivo” (setting [9]), “above”; in the series “in vivo” (setting [10]) it was “Yes”; in the series “in vivo” (setting [6]), “above”. Besides, the MTD in “in vivo” (H1299 tumor-bearing mice) stood at 750 µmol/kg; in “in vivo” (nude mice, non-tumour bearing), 1000 µmol/kg.
